Test results from article PMC8230956, “Inhibition of the Human Hsc70 System by Small Ligands as a Potential Anticancer Approach” (Cancers, 2021).
Like-named read-outs stand apart in the source and are kept apart here.

What was measured:
Hsc70 + DnaJB1 + Apg2 = target: T1, Hsc70 + DnaJB1 + Apg2 (Homo sapiens, UniProt P11142+P34932); experiment: Reactivation of G6PDH aggregates by the ternary chaperone mixture; format: biochemical
T1 construct: His6-SUMO (N, cleaved yes); made in house; host or cells: E. coli BL21 Rosetta
Description: (§1) Subsequently, aggregates were stabilized for 30 min at 30 °C. The properties of these aggregates have been previously reported, and typically show a hydrodynamic radius of approximately 500–600 nm. Aggregates (0.4 µM final concentration) were added to samples containing 2 µM Hsc70 and 0.5 µM DnaJB1 in the absence or presence of 0.4 µM Apg2. […] A preincubation of the samples with compounds for 30 min at 30 °C was done prior to starting the reaction. The reaction was started with the addition of 2 mM ATP and the ATP-regeneration system (3 mM PEP and 20 ng/mL PK). Final sample volume was 100 µL. Reactivation was monitored at 30 °C for 180 min. At different times of the reaction, 5 µL of sample were added to 250 µL buffer containing 50 mM Tris-HCl pH 7.5, 50 mM KCl, 20 mM MgCl2, 10 mM DTT, 1 mM NADP^+, 2.5 mM G6P (Sigma-Aldrich). NADPH formation was measured recording the absorbance increase at 340 nm in a Synergy HTX plate reader (BioTek, Winooski, VT, USA) in transparent 96-well plates with flat bottom (Sarstedt, Newton, NC, USA) for 5 min. Reactivation percentages were calculated considering the slope of NADPH formation for native G6PDH as 100% activity. […] IC50 values were estimated with a sigmoidal dose-response ligand-binding equation.

A2058 cells = experiment: Cell viability assay (XTT or Presto Blue), A2058; format: cell-based, human; conditions: for Effect on cell viability (toxicity), A2058: increasing concentrations, different incubation times
Text: (§2) Cells grew in Dulbecco’s Modified Eagle Medium (DMEM) high glucose (Sigma-Aldrich) supplemented with heat-inactivated 10% fetal bovine serum (FBS) (HyClone™, GE Healthcare, IL, USA). […] Primary human melanocytes (human epidermal melanocytes, neonatal, light pigmented, HEMn-LP) were purchased from Invitrogen (Waltham, MA, USA, C-002-5C).
(§3) Two colorimetric assays were used to study the cytotoxic effects of the selected compounds: the XTT Cell Proliferation Kit II (Roche) and Presto Blue™ Cell Viability Reagent (Invitrogen). Exponentially growing cell lines seeded at 20,000 cells/well in 96-well flat bottom plates (Sarstedt) were incubated overnight in 150 µL of the corresponding growth medium. The following day, the medium was replaced by fresh medium (150 µL) containing 1% FBS (except for melanocytes) and 0.9% DMSO in the presence or absence of different concentrations of compounds. A2058 and MeWo cells were treated with increasing compound concentrations for cell viability assays. […] Cell viability in plates treated with XTT was determined by reading the absorbance at 490 nm in a Synergy HTX plate reader (BioTek). […] In both cases, the absorbance of the medium was subtracted from cell-containing wells. Control values (without compounds but with 0.9% DMSO) were taken as 100% viability.

Hsc70 + DnaJB1 = target: T2, Hsc70 + DnaJB1 (Homo sapiens, UniProt P11142); experiment: Reactivation of G6PDH aggregates by the binary chaperone mixture; format: biochemical; conditions: 2 µM Hsc70, 0.5 µM DnaJB1, 0.4 µM G6PDH aggregates; means ± SD of three experiments
T2 construct: His6-SUMO (N, cleaved yes); made in house; host or cells: E. coli BL21 Rosetta
Description: as §1

[1] = system: non-transformed cell lines; set-up: method as in PMID 19027770, PMID 17981006, PMID 18171263; conditions: cited from earlier work
MeWo cells = experiment: Cell viability assay (XTT or Presto Blue), MeWo; format: cell-based, human; conditions: increasing concentrations, different incubation times
Text: as §2, §3

[2] = system: melanocytes (HEMn-LP non-malignant skin cells); experiment: Cell viability assay (XTT or Presto Blue), primary melanocytes; format: cell-based, human; conditions: 20 µM, up to 12 h
Text: as §2, §3

fibroblasts (MRC-5) = experiment: Cell viability assay (XTT or Presto Blue), fibroblasts; format: cell-based, human; conditions: 20 µM, up to 12 h
Text: as §2, §3

[3] = 2 µM Hsc70, 0.5 µM DnaJB1, 0.4 µM Apg2, 0.4 µM G6PDH aggregates, means ± SD of three experiments, read-out: IC50 G6PDH Reactivation Hsc70 + DnaJB1 + Apg2

T2 sequence (P11142 whole entry): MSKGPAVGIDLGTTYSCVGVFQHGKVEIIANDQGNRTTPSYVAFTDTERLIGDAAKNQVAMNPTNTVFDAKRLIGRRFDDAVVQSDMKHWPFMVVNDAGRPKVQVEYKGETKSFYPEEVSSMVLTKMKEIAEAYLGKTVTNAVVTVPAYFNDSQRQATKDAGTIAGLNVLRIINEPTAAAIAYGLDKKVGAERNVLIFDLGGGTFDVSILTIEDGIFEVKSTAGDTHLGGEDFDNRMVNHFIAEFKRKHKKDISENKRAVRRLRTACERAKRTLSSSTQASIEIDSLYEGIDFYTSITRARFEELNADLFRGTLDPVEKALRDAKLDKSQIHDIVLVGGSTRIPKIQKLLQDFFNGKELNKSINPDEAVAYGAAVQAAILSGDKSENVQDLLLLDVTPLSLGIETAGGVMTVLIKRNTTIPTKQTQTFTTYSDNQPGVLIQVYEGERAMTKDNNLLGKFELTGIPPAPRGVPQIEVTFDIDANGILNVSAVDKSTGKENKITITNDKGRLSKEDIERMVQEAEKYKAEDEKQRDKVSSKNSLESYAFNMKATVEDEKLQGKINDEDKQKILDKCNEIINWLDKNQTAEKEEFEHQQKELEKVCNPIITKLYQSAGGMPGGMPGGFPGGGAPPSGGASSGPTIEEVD
T1 sequence (P11142 whole entry): as above
T1 sequence (P34932 whole entry): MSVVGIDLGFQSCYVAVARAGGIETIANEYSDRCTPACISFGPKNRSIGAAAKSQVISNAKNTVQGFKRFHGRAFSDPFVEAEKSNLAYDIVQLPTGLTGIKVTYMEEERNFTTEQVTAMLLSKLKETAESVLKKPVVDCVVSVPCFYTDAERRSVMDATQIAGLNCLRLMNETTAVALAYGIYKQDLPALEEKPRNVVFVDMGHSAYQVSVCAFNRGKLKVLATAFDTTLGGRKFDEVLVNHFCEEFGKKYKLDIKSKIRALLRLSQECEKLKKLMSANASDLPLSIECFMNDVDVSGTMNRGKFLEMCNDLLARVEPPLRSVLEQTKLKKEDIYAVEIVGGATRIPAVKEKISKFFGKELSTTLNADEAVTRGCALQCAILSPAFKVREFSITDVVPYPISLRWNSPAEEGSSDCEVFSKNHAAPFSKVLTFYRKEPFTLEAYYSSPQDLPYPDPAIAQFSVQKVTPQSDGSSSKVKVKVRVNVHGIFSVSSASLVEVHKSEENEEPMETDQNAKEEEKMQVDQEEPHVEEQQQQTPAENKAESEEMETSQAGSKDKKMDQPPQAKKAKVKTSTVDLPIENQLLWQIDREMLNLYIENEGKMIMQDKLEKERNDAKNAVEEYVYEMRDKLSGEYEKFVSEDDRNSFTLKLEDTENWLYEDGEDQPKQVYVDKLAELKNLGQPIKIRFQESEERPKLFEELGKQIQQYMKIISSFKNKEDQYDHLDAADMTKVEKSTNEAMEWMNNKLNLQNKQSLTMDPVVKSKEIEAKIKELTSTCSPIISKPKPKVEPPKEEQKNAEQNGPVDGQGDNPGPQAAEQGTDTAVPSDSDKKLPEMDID

SMILES	IC50 (Hsc70 + DnaJB1 + Apg2; [3]) [µM]	Effect on cell viability (toxicity), A2058 (A2058 cells)	IC50 (Hsc70 + DnaJB1) [µM]	Toxicity in non-transformed cell lines [1]	Effect on cell viability (toxicity), MeWo (MeWo cells)	IC50 (Hsc70 + DnaJB1 + Apg2) [µM]	Fold lower toxic concentration in melanoma cell lines than IC50 for the isolated chaperone system (A2058 cells; melanoma cell lines (A2058 and MeWo) versus IC50 of the isolated chaperone system)	Toxicity in melanocytes [2]	Toxicity in fibroblasts (fibroblasts (MRC-5))
[H]/N=C(\N/C(=N/[H])NCCCCCCNC(=N)NC(=N)Nc1ccc(Cl)cc1)Nc1ccc(Cl)cc1 [Compound 1, (1E)-2-[6-[[amino-[(E)-[amino-(4-chloroanilino)methylidene]amino]methylidene]amino]hexyl]-1-[amino-(4-chloroanilino)methylidene]guanidine]	14.5 ± 1.8	Cell viability decreased	11.9 ± 0.2	toxicity in several non-transformed cell lines	Cell viability decreased	–	–	–	–
CCc1oc2ccccc2c1C(=O)c1cc(Br)c(O)c(Br)c1 [Compound 3, (3,5-dibromo-4-hydroxyphenyl)-(2-ethyl-1-benzofuran-3-yl)methanone]	–	no toxicity was observed	10.1 ± 0.4	–	no toxicity was observed	17.6 ± 0.1	–	–	–
CC=C(C)C(=O)OC1C(OC(C)=O)C2(CO)C(O)CC3(C)C(=CCC4C5(C)CCC(OC6OC(C(=O)O)C(OC7OC(CO)C(O)C(O)C7O)C(O)C6OC6OC(CO)C(O)C(O)C6O)C(C)(CO)C5CCC43C)C2CC1(C)C (centres unmarked) [Compound 4]	47 ± 5.6	–	37.3 ± 1.8	–	–	–	–	–	–
Cl.O[C@@H](c1cc(C(F)(F)F)nc2c(C(F)(F)F)cccc12)[C@H]1CCCCN1 [Compound 5, (S)-[2,8-bis(trifluoromethyl)quinolin-4-yl]-[(2R)-piperidin-2-yl]methanol hydrochloride]	97.3 ± 21.1	Cell viability decreased	107 ± 7.5	–	Cell viability decreased	–	around 7 fold	no toxicity was observed	no toxicity was observed
O=C(O)Cc1cc(I)c(Oc2ccc(O)c(I)c2)c(I)c1 [Compound 6, 2-[4-(4-hydroxy-3-iodophenoxy)-3,5-diiodophenyl]acetic acid]	–	no toxicity was observed	–	–	no toxicity was observed	–	–	–	–
